“And” between values parts separate entries of the source, which are not always exact repeats. Equal entries are not always repeated. Where two headings read alike, the source gives them in different places. Each block holds one compound with its values, some of them ahead of it.
Assays:
MIA PaCa-2 cells = assay: Cell killing assay: cytotoxicity of Vγ9Vδ2 T cells towards pAg- or zoledronate-treated MIA PaCa-2 cells (luciferase); assay type: cell-based, human; conditions: Homo sapiens, MIA PaCa-2, read-out: EC50 (M) for MIA PaCa-2 cell lysis mediated by HMBPP analogs and Vγ9Vδ2 T cells
Protocol: MIA PaCa-2 cells were infected with lentivirus bearing luciferase transgene. Luciferase-positive cells were plated at 5.0 × 10^3 cells per well in 384-well plates 1 day before transfection. All plasmids were transfected into BTN2A^−/− MIA PaCa-2 (BTN2A1/BTN2A2 KO) cells using Lipofectamine 2000 reagent. […] Stable-lite luciferase (Vazyme) was added to each well and the luciferase signal was immediately measured by using the PerkinElmer EnVision microplate reader.
Percentage of lysis was calculated using the following equation: percentage of specific lysis = (maximum luciferase − experimental luciferase)/maximum luciferase × 100.

[1] = test system: BTN2A−/− MIA PaCa-2 (BTN2A1/BTN2A2 KO) cells; assay: Cell killing assay with BTN2A−/− MIA PaCa-2 (BTN2A1/BTN2A2 KO) cells expressing BTN2A1/BTN2A2 variants; conditions: replicates and mean
Vγ9Vδ2 T cells = conditions: cited from earlier work
BTN3A1 B30.2 domain = target: T1, BTN3A1 B30.2 domain (Homo sapiens, UniProt O00481); assay: ITC: pAg binding to the BTN3A1 B30.2 domain; conditions: 25 °C, read-out: KD, pAg binding to BTN3A1 B30.2 alone
T1 construct: The BTN3A1 B30.2 domain was expressed and purified as described previously; made in house
Protocol: (§1) ITC binding fits were calculated using MicroCal Analysis software.
For pAg binding to the BTN3A1 B30.2 domain, the sample cell and injection syringe were filled with the buffer containing 100 µM protein and 1 mM HMBPP, respectively, or 400 µM protein and 4 mM DMAPP (IPP), respectively.

VpBTN1 BFI–VpBTN3 BFI = assay: ITC: VpBTN1 BFI binding to VpBTN3 BFI in the presence of pAg; set-up: species or system alpaca (Vicugna pacos)
Protocol: (§2) ITC experiments were performed using the MicroCal PEAQ-ITC instrument (GE Healthcare) at 25 °C. We used an initial injection of 0.4 μl followed by 19 injections (2 µl each) at 150 s time intervals. ITC binding fits were calculated using MicroCal Analysis software. The samples were prepared using a buffer (20 mM HEPES pH 7.5, 150 mM NaCl).
(§3) ITC experiments of HMBPP, DMAPP or IPP binding to the VpBTN3 BFI (or the preconditioned VpBTN3 BFI and VpBTN2 BFI complex) and VpBTN2 BFI (or VpBTN1 BFI) binding to VpBTN3 BFI in the presence of HMBPP, DMAPP or IPP were performed according to the same procedures as for the BTN3A1 B30.2 and BTN2A1 B30.2.

[2] = target: T2, preconditioned BTN2A1–BTN3A1 B30.2 complex (Homo sapiens, UniProt O00481+Q7KYR7); assay: ITC: pAg binding to the preconditioned BTN2A1 B30.2 and BTN3A1 B30.2 complex
T2 construct: The BTN3A1 B30.2 domain was expressed and purified as described previously; 6xHis; made in house; host or cells: Escherichia coli BL21 (DE3) for BTN2A1 B30.2
Protocol: as §1
For HMBPP binding to the preconditioned BTN2A1 B30.2 and BTN3A1 B30.2 complex, BTN2A1 B30.2 (20 µM) and BTN3A1 B30.2 (10 µM) were incubated in the buffer at a 2:1 ratio and loaded into the sample cell, and the injection syringe was filled with buffer containing 100 µM HMBPP.
For DMAPP/IPP binding to the preconditioned BTN2A1 B30.2 and BTN3A1 B30.2 complex, BTN2A1 B30.2 (200 µM) and BTN3A1 B30.2 (100 µM) were incubated in buffer at a 2:1 ratio and loaded into the sample cell, and the injection syringe was filled with buffer containing 1 mM DMAPP/IPP.
For other pAgs, their concentrations were adjusted to 500 µM, and BTN2A1 B30.2 and BTN3A1 B30.2 were adjusted to 100 µM and 50 µM at a 2:1 ratio.

VpBTN3 BFI = VpBTN3 BFI (Vicugna pacos, UniProt A0A345DF50); assay: ITC: pAg binding to VpBTN3 BFI; set-up: species or system alpaca (Vicugna pacos)
Protocol: as §2, §3

VpBTN3 BFI, sequence (A0A345DF50 entry or part of it): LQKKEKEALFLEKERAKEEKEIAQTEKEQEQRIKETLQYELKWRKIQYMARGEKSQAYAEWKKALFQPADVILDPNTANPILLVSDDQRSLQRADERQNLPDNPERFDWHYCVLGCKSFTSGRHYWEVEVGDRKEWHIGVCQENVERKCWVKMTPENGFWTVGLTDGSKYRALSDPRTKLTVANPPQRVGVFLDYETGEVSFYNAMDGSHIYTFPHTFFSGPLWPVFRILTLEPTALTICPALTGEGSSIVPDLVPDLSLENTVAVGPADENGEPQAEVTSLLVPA
T2 sequence (O00481 322-513 limits assumed): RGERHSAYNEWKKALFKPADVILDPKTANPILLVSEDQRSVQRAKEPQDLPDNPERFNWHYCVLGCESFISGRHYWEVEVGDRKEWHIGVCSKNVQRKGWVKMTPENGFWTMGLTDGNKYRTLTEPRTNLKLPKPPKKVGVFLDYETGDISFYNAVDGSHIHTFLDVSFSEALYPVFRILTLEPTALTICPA
T2 sequence (Q7KYR7 316-527 limits assumed): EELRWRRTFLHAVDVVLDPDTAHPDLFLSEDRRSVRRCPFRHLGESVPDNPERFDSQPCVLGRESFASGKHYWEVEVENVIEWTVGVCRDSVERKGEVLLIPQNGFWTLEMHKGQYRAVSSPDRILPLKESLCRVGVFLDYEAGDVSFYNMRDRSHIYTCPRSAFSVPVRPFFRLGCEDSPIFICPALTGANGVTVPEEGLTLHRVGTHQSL
T1 sequence (O00481 322-513 limits assumed): as the sequence (O00481 322-513 limits assumed) above

Kd (BTN3A1 B30.2 domain): 120 µM
VpBTN1 binding to VpBTN3 in the presence of pAg (VpBTN1 BFI–VpBTN3 BFI): does not bind
Kd ([2]; ITC, read-out: KD, pAg binding to the preconditioned BTN2A1–BTN3A1 B30.2 complex): 34.5 µM
Kd (VpBTN3 BFI): 92.7 µM
SMILES: CC(C)=CCOP(=O)(O)OP(=O)(O)O [Compound 2, 3-methylbut-2-en-1-yl diphosphate]
EC50 (MIA PaCa-2 cells): 3.38e-05 M
Cytotoxicity of Vγ9Vδ2 T cells (percentage of specific lysis) ([1]; DMAPP log concentration -3, 2A1 WT cells): 67.6357% and 66.8005% and 66.45% and 64.9272%
Cytotoxicity of Vγ9Vδ2 T cells (percentage of specific lysis) ([1]; DMAPP log concentration -3, 2A1 ∆C cells): 50.07% and 46.3428% and 49.8006% and 54.0592%
Cytotoxicity of Vγ9Vδ2 T cells (percentage of specific lysis) ([1]; DMAPP log concentration -4, 2A1 WT cells): 51.6139% and 52.9591% and 50.43% and 46.7133%
Cytotoxicity of Vγ9Vδ2 T cells (percentage of specific lysis) ([1]; DMAPP log concentration -4, 2A1 ∆C cells): 32.85% and 28.2229% and 33.1127% and 37.2268%
Cytotoxicity of Vγ9Vδ2 T cells (percentage of specific lysis) ([1]; DMAPP log concentration -5, 2A1 WT cells): 27.5187% and 30.1465% and 24.7% and 16.4296%
Cytotoxicity of Vγ9Vδ2 T cells (percentage of specific lysis) ([1]; DMAPP log concentration -5, 2A1 ∆C cells): 7.57% and 3.153% and 7.027% and 12.531%
Cytotoxicity of Vγ9Vδ2 T cells (percentage of specific lysis) ([1]; DMAPP log concentration -6, 2A1 WT cells): 16.7353% and 16.8396% and 11.83% and 1.904%
Cytotoxicity of Vγ9Vδ2 T cells (percentage of specific lysis) ([1]; DMAPP log concentration -6, 2A1 ∆C cells): -5.456% and -7.052% and -6.983% and -2.333%
Cytotoxicity of Vγ9Vδ2 T cells (percentage of specific lysis) ([1]; DMAPP log concentration -7, 2A1 WT cells): 14.3939% and 14.8552% and 15.57% and 17.4711%
Cytotoxicity of Vγ9Vδ2 T cells (percentage of specific lysis) ([1]; DMAPP log concentration -7, 2A1 ∆C cells): -6.482% and -4.367% and -8.1249% and -6.954%
Cytotoxicity of Vγ9Vδ2 T cells (percentage of specific lysis) ([1]; DMAPP log concentration -8, 2A1 WT cells): 15.6376% and 16.0032% and 16.43% and 17.6429%
Cytotoxicity of Vγ9Vδ2 T cells (percentage of specific lysis) ([1]; DMAPP log concentration -8, 2A1 ∆C cells): -6.047% and -3.94% and -7.782% and -6.418%
Cytotoxicity of Vγ9Vδ2 T cells (percentage of specific lysis) ([1]; DMAPP log concentration -9, 2A1 WT cells): 15.8717% and 18.2997% and 15.33% and 11.8213%
Cytotoxicity of Vγ9Vδ2 T cells (percentage of specific lysis) ([1]; DMAPP log concentration -9, 2A1 ∆C cells): -5.239% and -4.736% and -6.266% and -4.716%
Cytotoxicity of Vγ9Vδ2 T cells (percentage of specific lysis) ([1]; DMAPP log concentration -10, 2A1 WT cells): 19.1442% and 5.933% and 13.82% and 16.3962%
Cytotoxicity of Vγ9Vδ2 T cells (percentage of specific lysis) ([1]; DMAPP log concentration -10, 2A1 ∆C cells): -5.48% and -6.082% and -3.811% and -6.548%
Vγ9Vδ2 T cell activation (Vγ9Vδ2 T cells): weakly activate

Kd (BTN3A1 B30.2 domain): 658 µM
VpBTN1 binding to VpBTN3 in the presence of pAg (VpBTN1 BFI–VpBTN3 BFI): does not bind
Kd [2]: 625 µM
Kd (VpBTN3 BFI): 96.1 µM
SMILES: C=C(C)CCO[P@@](=O)(O)OP(=O)(O)O [Compound 3, 3-methylbut-3-en-1-yl diphosphate]
EC50 (MIA PaCa-2 cells): 0.00493 M
Cytotoxicity of Vγ9Vδ2 T cells (percentage of specific lysis) ([1]; IPP log concentration -3, 2A1 WT cells, listed as IPP): 80.272% and 79.8722% and 80.6% and 81.6589%
Cytotoxicity of Vγ9Vδ2 T cells (percentage of specific lysis) ([1]; IPP log concentration -3, 2A1 ∆C cells, listed as IPP): 66.24% and 65.5729% and 68.622% and 64.5211%
Cytotoxicity of Vγ9Vδ2 T cells (percentage of specific lysis) ([1]; IPP log concentration -4, 2A1 WT cells, listed as IPP): 65.5992% and 65.1182% and 63.37% and 59.3975%
Cytotoxicity of Vγ9Vδ2 T cells (percentage of specific lysis) ([1]; IPP log concentration -4, 2A1 ∆C cells, listed as IPP): 41.6% and 36.6007% and 47.2763% and 40.914%
Cytotoxicity of Vγ9Vδ2 T cells (percentage of specific lysis) ([1]; IPP log concentration -5, 2A1 WT cells, listed as IPP): 35.2807% and 27.2598% and 28.66% and 23.4468%
Cytotoxicity of Vγ9Vδ2 T cells (percentage of specific lysis) ([1]; IPP log concentration -5, 2A1 ∆C cells, listed as IPP): 1.679% and 1.84% and 2.699% and 0.4994%
Cytotoxicity of Vγ9Vδ2 T cells (percentage of specific lysis) ([1]; IPP log concentration -6, 2A1 WT cells, listed as IPP): 15.0716% and 6.17% and 6.634% and -1.341%
Cytotoxicity of Vγ9Vδ2 T cells (percentage of specific lysis) ([1]; IPP log concentration -6, 2A1 ∆C cells, listed as IPP): -15.39% and -15.1198% and -17.7309% and -13.3339%
Cytotoxicity of Vγ9Vδ2 T cells (percentage of specific lysis) ([1]; IPP log concentration -7, 2A1 WT cells, listed as IPP): 11.2422% and 4.023% and 5.64% and 1.654%
Cytotoxicity of Vγ9Vδ2 T cells (percentage of specific lysis) ([1]; IPP log concentration -7, 2A1 ∆C cells, listed as IPP): -18.31% and -18.7728% and -18.1549% and -17.992%
Cytotoxicity of Vγ9Vδ2 T cells (percentage of specific lysis) ([1]; IPP log concentration -8, 2A1 WT cells, listed as IPP): 11.2149% and 6.571% and 5.735% and -0.5797%
Cytotoxicity of Vγ9Vδ2 T cells (percentage of specific lysis) ([1]; IPP log concentration -8, 2A1 ∆C cells, listed as IPP): -16.71% and -15.5368% and -14.5401% and -20.0505%
Cytotoxicity of Vγ9Vδ2 T cells (percentage of specific lysis) ([1]; IPP log concentration -9, 2A1 WT cells, listed as IPP): 7.561% and 7.582% and 2.411% and -7.912%
Cytotoxicity of Vγ9Vδ2 T cells (percentage of specific lysis) ([1]; IPP log concentration -9, 2A1 ∆C cells, listed as IPP): -17.93% and -16.44% and -18.8245% and -18.5163%
Cytotoxicity of Vγ9Vδ2 T cells (percentage of specific lysis) ([1]; IPP log concentration -10, 2A1 WT cells, listed as IPP): 9.041% and 9.773% and 3.545% and -8.179%
Cytotoxicity of Vγ9Vδ2 T cells (percentage of specific lysis) ([1]; IPP log concentration -10, 2A1 ∆C cells, listed as IPP): -16.6% and -16.8802% and -17.0673% and -15.8455%
Vγ9Vδ2 T cell activation (Vγ9Vδ2 T cells): weakly activate

SMILES: Cc1ccc(C/C(=C\COP(=O)(O)OP(=O)(O)O)CO)cc1 [HMBPP-08, (E)-4-hydroxy-3-(4-methylbenzyl)but-2-enyl diphosphate]
γδ T cell activation (Vγ9Vδ2 T cells): do not efficiently activate

Source: publication PMC10533412, “Phosphoantigens glue butyrophilin 3A1 and 2A1 to activate Vγ9Vδ2 T cells” (Nature, 2023)
